Measurements reported in US20130078718A1, “CONVERSION OF VASCULAR ENDOTHELIAL CELLS INTO MULTIPOTENT STEM-LIKE CELLS” (PRESIDENT AND FELLOWS OF HARVARD COLLEGE, priority 2010, published 2013).
Entries after “also recorded” stand apart in the source; their conditions may differ.

How the values were obtained:
Format in all cases: cell-based, human
Smad2 and Smad5 = assay: Smad phosphorylation by immunoblotting; settings: for Smad5 phosphorylation: 10 ng/mL, 1 hour; for phosphorylation of Smad2 and Smad5 (immunoblotting): HUVECs, 10 ng ml−1, 1 h
Protocol: (§1) Human umbilical vein endothelial cells (HUVEC) and human cutaneous microvascular endothelial cells (HCMEC) were provided by J. Bischoff (Children's Hospital Boston) and isolated as previously described^35. […] Cells were grown in culture using EGM-2 medium (Cambrex), containing 10% FBS and 1% Penicillin/Streptomycin, followed by human endothelial serum free medium (Gibco) 24 hours prior to all experimental conditions. Bone marrow derived mesenchymal stem cells (ScienCell Research Laboratories) were grown in mesenchymal stem cell medium (ScienCell Research Laboratories). Human corneal fibroblasts, from a stock initially provided by E. Hay (Harvard Medical School), were grown in RPMI medium, containing 10% FBS and 1% Penicillin/Streptomycin. Primary human osteoblasts, chondrocytes, and adipocytes and their respective growth media were obtained from Cell Applications Inc. Recombinant TGF-β2 and BMP4 proteins (R&D Systems) were added to the serum free culture medium for all relevant experiments at a concentration of 10 ng/mL. Cells were treated for 15 minutes to assess ALK2 phosphorylation, 1 hour to measure Smad5 phosphorylation, or 48 hours to induce EndMT. All experiments for this study were performed at minimum in triplicate.
(§2) Immunoassays were performed using the following antibodies at concentrations (and using protocols) recommended by the respective manufacturers: FSP-1 (H00006275-M01; Stressgen), ALK2 (sc-5671), Phospho-tyrosine (sc-7020), VE-cadherin (sc-6458), TIE2 (sc-324, sc-9026), STRO-1 (sc-47733), CD44 (sc-71220), CD90 (sc-9163), Osteocalcin (sc-74495, sc-23790), SOX9 (sc-20095), COL2A1 (sc-59958, sc-52658), PPARγ2 (sc-22022; Santa Cruz Biotechnology), vWF (ab68545; Abcam); His (A00174; GenScript); α-SMA (A5228), β-actin (A1978; Sigma-Aldrich). Samples were run with Criterion precast SDS-PAGE Gels (Bio-Rad). HRP-conjugated IgG TrueBlot reagents (18-8814, 18-8816, 18-8817; eBioscience) were used at a dilution of 1:1000. TrueBlot IgG beads (eBioscience) were used for immunoprecipitation experiments. Alexa Fluor secondary antibodies (Invitrogen) were used at a dilution of 1:200. Images were acquired using a Nikon 80i fluorescence microscope.
Human umbilical vein endothelial cells (HUVEC) and human cutaneous microvascular endothelial cells (HCMEC) isolated as previously described (35). […] Cells were grown in culture using EGM-2 medium (Cambrex), containing 10% FBS and 1% Penicillin/Streptomycin, followed by human endothelial serum free medium (Gibco) 24 h prior to all experimental conditions. Bone marrow derived mesenchymal stem cells (ScienCell Research Laboratories) were grown in mesenchymal stem cell medium (ScienCell Research Laboratories). Bone marrow derived hematopoietic stem cells (Lonza) were grown in HPGM medium (Lonza). Human corneal fibroblasts, from a stock provided by Dr. Elizabeth Hay (Harvard Medical School), were grown in RPMI medium, containing 10% FBS and 1% Penicillin/Streptomycin. Primary human osteoblasts, chondrocytes, and adipocytes and their respective growth media were obtained from Cell Applications, Inc. Recombinant TGF-β2, BMP4, and BMP7 proteins (R&D Systems) were added to the serum free culture medium for all relevant experiments at a concentration of 10 ng ml^−1. Recombinant VEGF (R&D Systems) was added to cultures at a concentration of 25 ng ml^−1. Dorsomorphin (Sigma-Aldrich) was added to cultures at a concentration of 5 μM.

HUVEC and HCMEC [1] = assay: Mesenchymal stem cell marker expression in treated endothelial cells; settings: 10 ng/mL, 48 hours; for expression of mesenchymal stem cell genes CD10, CD13, CD44, CD73, CD90, CD120a, CD124 (real-time quantitative PCR): compared to control cells
Protocol: as §1, §2
Endothelial cells were stained in suspension using antibodies against TIE2, FSP-1, STRO-1, and His (described above) and the protocols provided by their respective manufacturer. Flow cytometry was performed at the Harvard Medical School, Department of Pathology flow cytometry core facility using a FACSDCalibur (BD Biosciences) cell sorter isolating 30,000 cells per sample.
(§3) RNA extractions were performed using the RNeasy Mini kit (Qiagen) and protocol. RNA samples were submitted to a core facility (Biopolymers Facility, Department of Genetics, Harvard Medical School) where real-time PCR experiments were conducted using the Syber Green PCR system (ABI) on an ABI 7500 cycler, with 40 cycles per sample. Cycling temperatures were as follows: denaturing 95° C.; annealing 60° C.; extension, 70° C. The following primers (Integrated DNA Technologies) were used: […]
Human umbilical vein endothelial cells (HUVEC) and human cutaneous microvascular endothelial cells (HCMEC) isolated as previously described (35). […] Cells were grown in culture using EGM-2 medium (Cambrex), containing 10% FBS and 1% Penicillin/Streptomycin, followed by human endothelial serum free medium (Gibco) 24 h prior to all experimental conditions.

HUVEC and HCMEC [2] = assay: Differentiation of treated endothelial cells in osteogenic, chondrogenic or adipogenic culture medium; settings: for alkaline phosphatase staining (osteoblasts) / alizarin red staining (matrix calcification) / gene expression of osteocalcin, osterix, COL2A1, SOX9, adiponectin, PPARγ2 (real-time quantitative PCR) / TIE2 expression in osteoblasts, chondrocytes and adipocytes derived from endothelial cells (immunoblotting): 48 hours treatment; for alkaline phosphatase staining (osteoblasts): then 7 days osteogenic medium; for alizarin red staining (matrix calcification): then 21 days osteogenic medium; for gene expression of osteocalcin, osterix, COL2A1, SOX9, adiponectin, PPARγ2 (real-time quantitative PCR): then osteogenic 7 days, chondrogenic 14 days or adipogenic 7 days, compared to vehicle; for differentiation by alkaline phosphatase, alizarin red, alcian blue or oil red O staining / protein expression of osterix, SOX9 and PPARγ2 (immunoblotting) / expression of endothelial markers TIE2, vWF, VE-cadherin, TIE1 in osteoblasts, chondrocytes, adipocytes derived from endothelial cells (immunoblot): 48 h treatment; for differentiation by alkaline phosphatase, alizarin red, alcian blue or oil red O staining: then differentiation medium 7-21 d; for protein expression of osterix, SOX9 and PPARγ2 (immunoblotting): then osteogenic 7 d, chondrogenic 14 d or adipogenic 7 d; for TIE2 expression in osteoblasts, chondrocytes and adipocytes derived from endothelial cells (immunoblotting) / expression of endothelial markers TIE2, vWF, VE-cadherin, TIE1 in osteoblasts, chondrocytes, adipocytes derived from endothelial cells (immunoblot): HCMEC, then differentiation medium
Protocol: as §3
Cells were grown in StemPro osteogenic, chondrogenic, or adipogenic culture medium (Invitrogen). Alkaline phosphatase staining was performed using the alkaline phosphatase kit and protocol (Sigma-Aldrich) on cultures grown in osteogenic medium for 7 days to detect osteoblasts. Alizarin Red (Sigma-Aldrich) staining was performed for 30 minutes on cultures grown in osteogenic medium for 21 days to detect matrix calcification. Alcian Blue (Sigma) staining was used to stain chondrocyte proteoglycans for 5 minutes in cultures grown in chondrogenic medium for 14 days. Oil Red O (Sigma-Aldrich) staining was performed for 15 minutes on cultures grown in adipogenic medium for 7 days.
Cells were grown in StemPro osteogenic, chondrogenic, or adipogenic culture medium (Invitrogen). Alkaline phosphatase staining was performed using the alkaline phosphatase kit and protocol (Sigma-Aldrich) on cultures grown in osteogenic medium for 7 d to detect osteoblasts. Alizarin Red (Sigma-Aldrich) staining was performed for 30 min on cultures grown in osteogenic medium for 21 d to detect matrix calcification. Alcian Blue (Sigma) staining was used to stain chondrocyte proteoglycans for 5 minutes in cultures grown in chondrogenic medium for 14 d. Oil Red O (Sigma-Aldrich) staining was performed for 15 min on cultures grown in adipogenic medium for 7 d. For in vivo analysis, endothelial cells were labeled with fluorescent quantum dots using the Qtracker 525 Cell Labeling Kit (Invitrogen). Cells were treated in culture to induce EndMT then absorbed into OPLA polylactic acid scaffolds (BD Biosciences). Scaffolds were surgically implanted subcutaneously into immunodeficient nude mice (Nu/Nu strain; Charles River Laboratories). Local injection of StemPro differentiation medium (described above) was performed in the area of the implants every 72 h for 6 weeks. Scaffolds were cryosectioned and stained with Alizarin Red, Alcian Blue, or Oil Red O as described above. All procedures were reviewed and approved by the Institutional Animal Care and Use Committee at Harvard Medical School.

Row | Substance | Smad5 phosphorylation (Smad2 and Smad5) | phosphorylation of Smad2 and Smad5 (immunoblotting) (Smad2 and Smad5) | STRO-1 and other mesenchymal stem cell markers (immunoblotting) (HUVEC and HCMEC [1]) | co-expression of TIE2 and mesenchymal stem cell marker STRO-1 (immunofluorescence microscopy or flow cytometry) (HUVEC and HCMEC [1]) | expression of mesenchymal stem cell genes CD10, CD13, CD44, CD73, CD90, CD120a, CD124 (real-time quantitative PCR) (HUVEC and HCMEC [1]) | alkaline phosphatase staining (osteoblasts) (HUVEC and HCMEC [2]) | alizarin red staining (matrix calcification) (HUVEC and HCMEC [2]) | gene expression of osteocalcin, osterix, COL2A1, SOX9, adiponectin, PPARγ2 (real-time quantitative PCR) (HUVEC and HCMEC [2]) | differentiation by alkaline phosphatase, alizarin red, alcian blue or oil red O staining (HUVEC and HCMEC [2]) | protein expression of osterix, SOX9 and PPARγ2 (immunoblotting) (HUVEC and HCMEC [2]) | TIE2 expression in osteoblasts, chondrocytes and adipocytes derived from endothelial cells (immunoblotting) (HUVEC and HCMEC [2]) | expression of endothelial markers TIE2, vWF, VE-cadherin, TIE1 in osteoblasts, chondrocytes, adipocytes derived from endothelial cells (immunoblot) (HUVEC and HCMEC [2]) | staining of clonal populations for osteoblasts, chondrocytes or adipocytes (AP, AR, AB, OR) (HUVEC and HCMEC [2]; three clonal populations of HUVEC and HCMEC, differentiation medium)
1 | BMP4: Recombinant BMP4 protein (R&D Systems), ALK2 activating ligand, used at 10 ng/mL | phosphorylated | promoted phosphorylation of both Smad2 and Smad5 | strongly expressed | strong co-expression; also recorded: massive co-expression | greatly increased | strong positive staining | high levels of matrix calcification | dramatic increases | differentiated into other cell types | increases in protein expression | strong expression of TIE2 | showed expression of these endothelial markers | –
2 | TGF-β2: Recombinant TGF-β2 protein (R&D Systems), ALK2 activating ligand, used at 10 ng/mL | phosphorylated | promoted phosphorylation of both Smad2 and Smad5 | strongly expressed | strong co-expression; also recorded: massive co-expression | greatly increased | strong positive staining | high levels of matrix calcification | dramatic increases | differentiated into other cell types | increases in protein expression | strong expression of TIE2 | showed expression of these endothelial markers | stained positive
